Data reported in EP0565593B1, “REDUCING PESTICIDAL INTERACTIONS IN CROPS” (priority 1990, dated 1992).
Values joined by “and” are separate entries in the source; they are usually repeats but may differ in a detail not shown here. Equal entries are not always repeated. Where two headings read alike, the source gives them in different places.

What was measured:
[1] = tested on: Velvetleaf (VELE); assay type: in vivo, Abutilon theophrasti
[2] = tested on: Corn
[3] = tested on: Giant foxtail (GIFT); test: whole plant or invertebrate; assay type: in vivo; conditions: in vivo
[4] = tested on: Corn; test: Greenhouse test Procedure VII: biocide and antidote in furrow, herbicide POE (Examples 39-42, 48-50, 56-58; Tables 38-41, 47-49, 55-57); assay type: in vivo; conditions: for % Inhibition Corn: C (COUNTER) + antidote in furrow
Source text: This procedure describes interaction among herbicide, biocide and antidote when the biocide and the antidote is applied to a soil furrow containing crop seed before emergence of the crop and the herbicide is applied after emergence of the crop and weeds. The soil and planting depth was described in Procedure IV. The containers for comparison, the biocide and antidote applications to soil furrows were described in Procedure VI. In this procedure, the seed beds of the first, second, third and fourth containers are covered by soil layers not treated with herbicide. The containers were then placed on a bench in a greenhouse and subirrigated as required for the duration of the test. The herbicide, dispersed or dissolved in water containing 0.25% v/v nonionic surfactant (X-77) was applied by a track sprayer (187 L/ha) to the emerged plants of the second, third and fourth containers about five days after planting. All treatments were run in duplicate. Plant response was observed according to Procedure IV. Variations in this procedure will be noted in the examples.
In this example, tests were conducted according to Procedure VII for the POE application of the herbicides following in-furrow application of COUNTER® 15G insecticide (BIOCIDE No. 1) and the antidote on the pre-planted test seeds. In this test, the herbicides were Nos. 1 (MON-12000), 10 (ALLY®) and #4 (HARMONY®) and the Antidote Nos. 1, 7, 12 and 33.
These in-furrow treatments comprised a 50-50 mix of blended granules of COUNTER with and without 5G granular antidotes at 7.4 + 7.4 mg/cm or 1.1 + 0.37 mg active ingredient (a.i.)/cm. The in-furrow initiation of the test was followed five (5) days later with POE application of the herbicides; observations were made eight (8) days later.
In another test, conducted simultaneously with that in Example 39, Herbicide Nos. 5 (chlorimuron ethyl, active ingredient in CLASSIC® herbicide), 7 (nicosulfuron, active ingredient in ACCENT® herbicide) and 15 (tribenuron methyl, active ingredient in EXPRESS® herbicide) were substituted as test herbicides.
In this example, using the same procedure as above, the following imidazolinone herbicides were used with the same insecticide/biocide and antidotes as above: Herb. No. 16 (imazaquin, a.i. in SCEPTER® herbicide; No. 19 (Code No. AC 222293, a.i. in ASSERT® herbicide); No. 6 (imazethapyr, a.i. in PURSUIT® herbicide and No. 18 (imazapyr, a.i. in ARSENAL® herbicide). Test results are shown in Table 40. Table 40
This example describes the testing of the above antidotes used in Examples 39-41 to safen negative synergy interactions between representative species of the class of herbicidal compounds identified as azolopyrimidine sulfonamides and COUNTER 15G. The same procedure used in the above examples was conducted in this test. In this test, the herbicides were formulated in 17% acetone and 83% water with 0.25% v/v X-77 surfactant.
In these tests (according to Procedure VII) the safeners in solution with acetone were applied in furrow to the soil, followed by COUNTER 15G granules at 227 g/305 m (8 oz./1000'). Applications were made in alternate rows in two separate 13.7 cm x 27.7 cm pans containing Dupo silt loam. Pans were seeded 1.3 cm deep, placed on benches in a greenhouse and subirrigated. BEACON was formulated in water with 0.25% v/v X-77 surfactant and applied by track sprayer at a rate of 187 L/Ha (20 gal/A). Weed species in this test were giant foxtail, shattercane and velvetleaf. The herbicide was applied five (5) days after PPI initiation and observation of test result (shown in Table 47) made eight (8) days later.
In Table 47 COUNTER 15G is abbreviated as "C" and the antidotes as "A" in the column headings which indicate the "C + A" ratios used in the tests. Control and COUNTER treatments are average of four (4) replications and COUNTER + Antidote treatments, average of 2 reps. […]

[5] = tested on: Shattercane (SHCA); assay type: in vivo
[6] = tested on: Corn; conditions: MON-12000 + OP insecticides; Examples 20-23
[7] = Antidote 4.48 + Biocide No. 1 8.96 Kg/Ha PPI, Herb. No. 8 0.07, 5 DAP, before herbicide application
[8] = Antidote 4.48 + Biocide No. 1 8.96 Kg/Ha PPI, Herb. No. 8 0.07 POE, 13 DAP
[9] = Antidote 4.48 + Biocide No. 1 8.96 Kg/Ha PPI, Herbicide No. 7 0.28 POE, 13 days after planting
[10] = Herb. […], 5 DAP, before herbicide application
[11] = Table 14: Herbicide No. 7 (ACCENT) 0.84 Kg/Ha POE + Biocide No. 2 8.96 Kg/Ha PPI + antidote 4.48 Kg/Ha PPI, 13 days after planting, 8 days after herbicide
[12] = […], 13 days after planting, 8 days after herbicide
[13] = […], observed 10 days after herbicide application
[14] = Antidote 8.96 + Biocide No. 1 8.96 Kg/Ha PPI, Herb. No. 8 0.07, 5 DAP, before herbicide application
[15] = Antidote 8.96 + Biocide No. 1 8.96 Kg/Ha PPI, Herb. No. 8 0.07 POE, 13 DAP
[16] = Antidote 8.96 + Biocide No. 1 8.96 Kg/Ha PPI, Herbicide No. 7 0.28 POE, 13 days after planting
[17] = Table 14: Herbicide No. 7 (ACCENT) 0.84 Kg/Ha POE + Biocide No. 2 8.96 Kg/Ha PPI + antidote 8.96 Kg/Ha PPI, 13 days after planting, 8 days after herbicide

For `CC1CN(C(=O)C(Cl)Cl)C(C)(C)O1` (stereo not drawn) [compound 8], which “% Inhibition 5 DAP VELE” value [1, 7] is on record?
The value was 10%.

What about the “% Inhibition 13 DAP VELE” value [1, 8] of the same compound?
Its value is 85%.

What about the “% Inhibition VELE” value [1, 9] of the same compound?
Its value is 65%.

What about the “% Inhibition 5 DAP VELE” value [1, 10] of the same compound?
Its value is 0%.

And the “% Inhibition VELE” value [1, 11]?
Its value is 70%.

What about the “% Inhibition VELE” value [1, 12] of the same compound?
The value was 70%.

And the “% Inhibition VELE” value [1, 13]?
Its value is 75%.

And the “% Inhibition 5 DAP VELE” value ([1]; in vivo)?
The value was 0%.

What about the “% Inhibition 13 DAP VELE” value ([1]; in vivo) of the same compound?
Its value is 90%.

And the “% Inhibition 5 DAP Corn” value [2, 7]?
Its value is 20%.

What about the “% Inhibition 13 DAP Corn” value [2, 8] of the same compound?
Its value is 35%.

What about the “% Inhibition Corn” value [2, 9] of the same compound?
The value was 35%.

And the “% Inhibition 5 DAP Corn” value [2, 10]?
Its value is 0%.

What about the “% Inhibition Corn” value [2, 11] of the same compound?
The value was 20%.

What about the “% Inhibition Corn” value [2, 12] of the same compound?
The value was 20%.

What about the “% Inhibition Corn” value [2, 13] of the same compound?
The value was 45%.

What about the “% Inhibition 5 DAP Corn” value ([2]; in vivo) of the same compound?
The value was 20%.

What about the “% Inhibition 13 DAP Corn” value ([2]; in vivo) of the same compound?
The value was 30%.

And the “% Inhibition Corn” value ([2]; in vivo)?
The value was 30% and 55%.

What about the “% Inhibition GIFT” value [3] of the same compound?
Its value is 45% and 50% and 85% and 65% and 70% and 90% and 60%.

And the “% Inhibition Corn” value ([4]; C:A Ratio 20, ACCENT 0.56 Kg/Ha POE)?
The value was 10%.

What about the “% Inhibition Corn” value ([4]; C:A Ratio 20, BEACON 0.28 Kg/Ha POE) of the same compound?
Its value is 0%.

What about the “% Inhibition Corn” value ([4]; C:A Ratio 40, ACCENT 0.56 Kg/Ha POE) of the same compound?
The value was 15%.

And the “% Inhibition Corn” value ([4]; C:A Ratio 40, BEACON 0.28 Kg/Ha POE)?
The value was 0%.

And the “% Inhibition Corn” value ([4]; C:A Ratio 80, ACCENT 0.56 Kg/Ha POE)?
Its value is 20%.

What about the “% Inhibition Corn” value ([4]; C:A Ratio 80, BEACON 0.28 Kg/Ha POE) of the same compound?
Its value is 5%.

And the “% Inhibition Corn” value ([4]; C:A Ratio 160, ACCENT 0.56 Kg/Ha POE)?
The value was 40%.

What about the “% Inhibition Corn” value ([4]; C:A Ratio 160, BEACON 0.28 Kg/Ha POE) of the same compound?
The value was 15%.

And the “% Corn Inhibition C:A Ratios 5” value ([4]; Herbicide No. 8 0.28 Kg/Ha POE + COUNTER 15G 227 g/305 m + antidote in furrow, C:A ratio 5)?
The value was 3%.

And the “% Corn Inhibition C:A Ratios 10” value ([4]; Herbicide No. 8 0.28 Kg/Ha POE + COUNTER 15G 227 g/305 m + antidote in furrow, C:A ratio 10)?
The value was 5%.

And the “% Corn Inhibition C:A Ratios 20” value ([4]; Herbicide No. 8 0.28 Kg/Ha POE + COUNTER 15G 227 g/305 m + antidote in furrow, C:A ratio 20)?
The value was 5%.

What about the “% Corn Inhibition C:A Ratios 40” value ([4]; Herbicide No. 8 0.28 Kg/Ha POE + COUNTER 15G 227 g/305 m + antidote in furrow, C:A ratio 40) of the same compound?
The value was 3%.

And the “% Corn Inhibition C:A Ratios 80” value ([4]; Herbicide No. 8 0.28 Kg/Ha POE + COUNTER 15G 227 g/305 m + antidote in furrow, C:A ratio 80)?
Its value is 5%.

And the “% Corn Inhibition C:A Ratios 160” value ([4]; Herbicide No. 8 0.28 Kg/Ha POE + COUNTER 15G 227 g/305 m + antidote in furrow, C:A ratio 160)?
Its value is 10%.

What about the “% Inhibition 5 DAP SHCA” value [5, 7] of the same compound?
Its value is 0%.

And the “% Inhibition 13 DAP SHCA” value [5, 8]?
The value was 90%.

And the “% Inhibition SHCA” value [5, 9]?
Its value is 60%.

And the “% Inhibition SHCA” value [5, 11]?
The value was 85%.

And the “% Inhibition SHCA” value [5, 12]?
Its value is 90%.

What about the “% Inhibition SHCA” value [5, 13] of the same compound?
Its value is 60%.

What about the “% Inhibition 5 DAP SHCA” value ([5]; in vivo) of the same compound?
The value was 30%.

And the “% Inhibition 13 DAP SHCA” value ([5]; in vivo)?
Its value is 80%.

`COc1ccc(OC)c(C(=O)CC2OC(=O)c3ccccc32)c1` (stereo not drawn) [compound 77] was tested. Which “% Inhibition 5 DAP VELE” value [1, 14] did it give?
Its value is 0%.

What about the “% Inhibition 13 DAP VELE” value [1, 15] of the same compound?
The value was 90%.

And the “% Inhibition VELE” value [1, 16]?
The value was 65%.

And the “% Inhibition 5 DAP VELE” value [1, 10]?
The value was 0%.

What about the “% Inhibition VELE” value [1, 17] of the same compound?
The value was 70%.

What about the “% Inhibition VELE” value [1, 12] of the same compound?
Its value is 70%.

And the “% Inhibition VELE” value [1, 13]?
The value was 80%.

What about the “% Inhibition 5 DAP VELE” value ([1]; in vivo) of the same compound?
The value was 20%.

And the “% Inhibition 13 DAP VELE” value ([1]; in vivo)?
Its value is 95%.

What about the “% Inhibition 5 DAP Corn” value [2, 14] of the same compound?
The value was 0%.

What about the “% Inhibition 13 DAP Corn” value [2, 15] of the same compound?
The value was 75%.

And the “% Inhibition Corn” value [2, 16]?
The value was 25%.

And the “% Inhibition 5 DAP Corn” value [2, 10]?
Its value is 0%.

And the “% Inhibition Corn” value [2, 17]?
The value was 25%.

What about the “% Inhibition Corn” value [2, 12] of the same compound?
Its value is 15%.

What about the “% Inhibition Corn” value [2, 13] of the same compound?
The value was 20%.

What about the “% Inhibition 5 DAP Corn” value ([2]; in vivo) of the same compound?
The value was 15%.

What about the “% Inhibition 13 DAP Corn” value ([2]; in vivo) of the same compound?
The value was 65%.

What about the “activity in reducing corn injury” value ([2]; primisulfuron POE + biocides PPI, Tables 8-10) of the same compound?
Its value is “either inactive or weakly active”.

What about the “% Inhibition GIFT” value [3] of the same compound?
The value was 60% and 95% and 85% and 80% and 70%.

And the “safening activity” value [6]?
Its value is “low or nil”.

What about the “% Inhibition 5 DAP SHCA” value [5, 14] of the same compound?
The value was 10%.

And the “% Inhibition 13 DAP SHCA” value [5, 15]?
The value was 85%.

And the “% Inhibition SHCA” value [5, 16]?
Its value is 70%.

And the “% Inhibition SHCA” value [5, 17]?
The value was 85%.

And the “% Inhibition SHCA” value [5, 12]?
The value was 95%.

And the “% Inhibition SHCA” value [5, 13]?
Its value is 60%.

What about the “% Inhibition 5 DAP SHCA” value ([5]; in vivo) of the same compound?
Its value is 60%.

What about the “% Inhibition 13 DAP SHCA” value ([5]; in vivo) of the same compound?
Its value is 90%.

And the “% Inhibition SHCA” value ([5]; in vivo)?
Its value is 85% and 55% and 65% and 45%.
